Earlier results in patent US8642009B2, “Diagnostic system for the detection of skin cancer” (priority 2005, dated 2014).
Where two headings read alike, the source gives them in different places. Marks after values point to notes of the source that are not given here.

What was measured:
M21 human melanoma = conditions: M21 tumour model, 120 min p.i.
αvβ3 = αvβ3 (Homo sapiens, UniProt P05106+P06756)
[1] = system: OVCAR-3 ovarian carcinoma; conditions: OVCAR-3 tumour model, 120 min p.i.; for Tumour/blood: estimated from graphical presentations
U87MG human glioblastoma = conditions: U87MG tumour model
[2] = system: Osteo murine osteosarcoma; conditions: Osteo tumour model
[3] = system: MDA-MB human breast cancer; conditions: MDA-MB tumour model, 120 min p.i.
[4] = system: CA20948 rat pancreatic tumour; conditions: CA20948 tumour model, 4 h p.i.
[5] = system: ACHN human renal adenocarcinoma; conditions: in vivo
[6] = system: DLD-1 human colon adenocarcinoma; conditions: DLD-1 tumour model, 60 min p.i.
[7] = 4 h p.i., estimated from graphical presentations

Chain of αvβ3 (P06756 31-889 limits assumed): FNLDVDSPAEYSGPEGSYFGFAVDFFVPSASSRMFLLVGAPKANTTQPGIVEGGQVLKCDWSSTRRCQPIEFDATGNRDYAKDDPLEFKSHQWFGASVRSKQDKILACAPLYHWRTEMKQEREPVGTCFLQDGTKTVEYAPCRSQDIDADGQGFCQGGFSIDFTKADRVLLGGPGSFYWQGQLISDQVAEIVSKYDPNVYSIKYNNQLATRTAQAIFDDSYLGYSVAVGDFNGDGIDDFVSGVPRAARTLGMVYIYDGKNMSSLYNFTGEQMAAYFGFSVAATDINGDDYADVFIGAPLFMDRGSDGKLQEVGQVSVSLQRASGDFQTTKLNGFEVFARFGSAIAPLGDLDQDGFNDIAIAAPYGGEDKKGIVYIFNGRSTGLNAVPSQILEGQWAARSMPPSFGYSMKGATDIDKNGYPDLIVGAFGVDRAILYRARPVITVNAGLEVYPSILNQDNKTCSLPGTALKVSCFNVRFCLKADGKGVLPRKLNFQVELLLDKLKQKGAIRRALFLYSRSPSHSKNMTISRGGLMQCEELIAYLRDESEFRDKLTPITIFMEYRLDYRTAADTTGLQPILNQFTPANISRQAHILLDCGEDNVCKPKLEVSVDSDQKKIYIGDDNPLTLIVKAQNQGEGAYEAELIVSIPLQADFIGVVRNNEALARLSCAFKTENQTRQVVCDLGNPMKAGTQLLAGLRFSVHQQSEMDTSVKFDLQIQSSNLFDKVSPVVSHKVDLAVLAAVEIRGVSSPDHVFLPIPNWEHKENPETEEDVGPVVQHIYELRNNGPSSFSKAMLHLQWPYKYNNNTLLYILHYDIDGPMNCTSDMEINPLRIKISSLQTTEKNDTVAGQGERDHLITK
Chain of αvβ3 (P06756 891-1048 partner limits assumed): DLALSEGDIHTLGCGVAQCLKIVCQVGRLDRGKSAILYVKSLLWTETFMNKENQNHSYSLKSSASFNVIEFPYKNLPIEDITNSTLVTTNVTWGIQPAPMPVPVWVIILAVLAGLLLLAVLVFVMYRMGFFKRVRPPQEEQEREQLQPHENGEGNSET
Chain of αvβ3 (P05106 27-788): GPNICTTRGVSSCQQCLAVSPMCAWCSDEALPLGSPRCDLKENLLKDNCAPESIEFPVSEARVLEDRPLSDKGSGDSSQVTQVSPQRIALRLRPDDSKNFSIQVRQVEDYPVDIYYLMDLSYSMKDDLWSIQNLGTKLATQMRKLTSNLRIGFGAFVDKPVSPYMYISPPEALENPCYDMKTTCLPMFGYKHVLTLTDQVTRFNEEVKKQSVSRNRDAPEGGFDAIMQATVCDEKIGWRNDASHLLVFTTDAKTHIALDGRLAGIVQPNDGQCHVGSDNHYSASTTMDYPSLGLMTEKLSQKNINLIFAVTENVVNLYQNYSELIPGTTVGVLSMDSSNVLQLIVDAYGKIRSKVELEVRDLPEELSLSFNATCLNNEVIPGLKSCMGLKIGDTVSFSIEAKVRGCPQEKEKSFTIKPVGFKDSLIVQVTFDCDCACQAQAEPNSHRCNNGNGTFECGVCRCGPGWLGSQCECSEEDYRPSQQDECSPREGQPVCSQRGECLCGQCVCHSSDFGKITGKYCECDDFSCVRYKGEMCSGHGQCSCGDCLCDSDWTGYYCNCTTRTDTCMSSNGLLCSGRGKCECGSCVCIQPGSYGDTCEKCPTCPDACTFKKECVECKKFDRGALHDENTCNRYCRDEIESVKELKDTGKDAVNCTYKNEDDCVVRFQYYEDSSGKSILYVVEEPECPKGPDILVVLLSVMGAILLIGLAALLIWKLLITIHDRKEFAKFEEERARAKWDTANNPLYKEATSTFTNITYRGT

## ((c(RGDfE)HEG)2-K)2-Dpr
M21 human melanoma
  Tumour uptake: 1.7 ± 0.1^b % ID/g
  Tumour/blood: 21.3
  Tumour/muscle: 23.1
αvβ3
  IC50: 0.0002 µM

## (c(RGDfE)HEG)2-K-Dpr
M21 human melanoma
  Tumour uptake: 1.6 ± 0.1^b % ID/g
  Tumour/blood: 12.4
  Tumour/muscle: 14.2
αvβ3
  IC50: 0.003 µM

## DKCK-RGD
M21 human melanoma
  Tumour uptake: 1.1 ± 0.1^b % ID/g
  Tumour/blood: 9.7
  Tumour/muscle: 8.1

## DOTA-E-[c(RGDfK])2
[1]
  Tumour uptake: 7.5 ± 1.5^b % ID/g
  Tumour/blood: 40^g ^

## DOTA-E[E-c(RGDyK)z]2
U87MG human glioblastoma; 120 min p.i.
  Tumour uptake: 7.6 ± 0.6^b % ID/g

## DOTA-PEG-c(RGDyK)
U87MG human glioblastoma; 4 h p.i.
  Tumour uptake: 1.6 ± 0.2^d % ID/g
U87MG human glioblastoma; [7]
  Tumour/blood: 80^g ^
  Tumour/muscle: 16^g ^

## DOTA-RGD
[2]; 60 min p.i.
  Tumour uptake: 1.1 ± 0.04^c % ID/g
  Tumour/blood: 11.8
  Tumour/muscle: 2.8

## DOTA-c(RGDyK)
[3]
  Tumour uptake: 1.4 ± 0.1^b % ID/g
  Tumour/blood: 6.9
  Tumour/muscle: 6

## DTPA-RGD
[4]
  Tumour uptake: 0.1 ± 0.02^d % ID/g
  Tumour/blood: 9.2
  Tumour/muscle: 7.9

## FB-c(RGDyK)
[3]
  Tumour uptake: 1.0 ± 0.3^b % ID/g
  Tumour/blood: 12.2
  Tumour/muscle: 5.8

## FP-E-c(RGDyK)2
[3]
  Tumour uptake: 4^b,g % ID/g

## FP-PEG-c(RGDyK)
U87MG human glioblastoma; 120 min p.i.
  Tumour uptake: 2.6 ± 0.1^b % ID/g
  Tumour/blood: 18.4
  Tumour/muscle: 25.6

## HYNIC-E-[c(RGDfK])2
[1]
  Tumour uptake: 5.8 ± 0.5^b % ID/g
  Tumour/blood: 10^g ^

## RGD
M21 human melanoma
  Tumour uptake: 1.8 ± 0.3^b % ID/g
  Tumour/blood: 7.9
  Tumour/muscle: 6.2
αvβ3
  IC50: 0.04 µM

## RGD-4C
[5]
  Tumour/blood: 1.6
  Tumour/muscle: 2.6

## c(RGDfE)HEG-Dpr
M21 human melanoma
  Tumour uptake: 0.5 ± 0.1^b % ID/g
  Tumour/blood: 12.4
  Tumour/muscle: 13.2
αvβ3; IC50 value for the corresponding compound
  IC50: 0.02 µM

## c(RGDfMe V)
[6]
  Tumour uptake: 0.9 ± 0.1^c % ID/g
  Tumour/blood: 5.2
  Tumour/muscle: 2.7

## c(RGDfY)
αvβ3
  IC50: 0.04 µM
[2]; 60 min p.i.
  Tumour uptake: 0.4 ± 0.1^c % ID/g
  Tumour/blood: 1.1
  Tumour/muscle: 2.7

## c(RGDy V)
αvβ3
  IC50: 0.01 µM
[2]; 120 min p.i.
  Tumour uptake: 1.5 ± 0.2^b % ID/g
  Tumour/blood: 8.6
  Tumour/muscle: 4.9

## c(RGDyK)
[3]
  Tumour uptake: 3.0 ± 0.1^b % ID/g
  Tumour/blood: 20.2
  Tumour/muscle: 4.7

## mPEG-c(RGDyK)
U87MG human glioblastoma; 120 min p.i.
  Tumour uptake: 5.1 ± 0.3^b % ID/g
  Tumour/blood: 85
